Laboratory results reported in US10155738B2, “Methods for skin whitening using a gallotannin” (RHODE ISLAND BOARD OF EDUCATION, STATE OF RHODE ISLAND & …, priority 2014, dated 2018).

Tests used:
[1] = system: TRP-2; assay: mRNA expression by real-time PCR in B16F10 cells; type: cell-based, murine; conditions: 10 μM, 48 h and 72 h
Protocol: (§1) Melanin biosynthesis involves multi-step pathways. In order to determine the molecular mechanisms of inhibitory effects of ginnalins on melanin synthesis, expression levels of melanogenesis related genes, including MITF, TYR, TRP-1 and TRP-2, in B16F10 cells were analyzed by using RT-PCR. The B16F10 cells were planted in 6-well plates at a density of 2.0×10^5 cells/well. After being incubated for 24 h, cells were treated with 2 or 10 μM of ginnalins for 48 or 72 h. Total RNA was isolated from cells using TRIzol reagent (Invitrogen) according to the manufacturer's instructions. One microgram of total RNA was converted to single-stranded cDNA using oligo(dT)18 primers, and mRNA levels were quantified by quantitative real-time PCR using a Roche LightCycler detection system (Roche Applied Science, Mannheim, Germany). Samples were run by using SYBR Green and compared with levels of b2m rRNA as a reference housekeeping gene. Quantitative real-time PCR conditions were optimized for each gene using appropriate forward and reverse primers. The primers used are listed in Supplemental material. All oligonucleotides were synthesized by Invitrogen Inc., CA.

[2] = system: TYR; assay: mRNA expression by real-time PCR in B16F10 cells; type: cell-based, murine; conditions: 10 μM; for TYR mRNA expression: 48 h and 72 h
Protocol: as §1

[3] = system: MITF; assay: mRNA expression by real-time PCR in B16F10 cells; type: cell-based, murine; conditions: 10 μM, 48 h and 72 h
Protocol: as §1

[4] = system: TRP-1; assay: mRNA expression by real-time PCR in B16F10 cells; type: cell-based, murine; conditions: 10 μM, 48 h and 72 h
Protocol: as §1

[5] = target: mushroom tyrosinase; assay: Tyrosinase enzyme inhibition assay; type: biochemical; conditions: pure compounds; mean ± S.D., triplicate independent experiments
Protocol: Maplifa was prepared by new methods developed in the laboratory. Briefly, leaves of red maple were dried and macerated in aqueous ethanol to obtain the crude extract which was then further purified on a resin column to remove chlorophyll and other plant pigments.

[6] = system: TRP-2; assay: Protein expression by Western blot in B16F10 cells; type: cell-based, murine; conditions: 10 μM, 72 hours
Protocol: Furthermore, the regulation of ginnalins on the protein expressions of melanogenesis related enzymes in B16F10 cells were evaluated by using Western blot. Expressions of melanin biosynthesis-related proteins, including MITF, TYR, TRP-1 and TRP-2 expression in B16F10 cells were measured by western blot. After incubation with ginnalins for 72 h, proteins from cells were resolved by SDS-PAGE and then transferred to polyvinylidene fluoride membrane. The membrane was blocked with 5% nonfat dry milk in Tris-buffered saline with Tween followed by incubation with primary antibodies overnight. Bands were visualized on X-ray film using an ECL detection kit (Amersham Biosciences, Piscataway, N.J.). A list of antibody, source, and dilution is listed in Supplementary material.

[7] = system: B16F10 cells; assay: MTS cell viability assay; type: cell-based, murine; conditions: 72 h; for B16F10 cell viability: vs untreated control
Protocol: To further investigate the anti-melanogenic activities of ginnalinginnalins A-C, present in the Maplifa extract, cellular based assay were employed to measure the melanin content on murine melanoma B16F10 cells. In order to determine the non-toxic concentrations of ginnalinginnalins for cellular assays, cell viability on B16F10 cells were first evaluated by using MTS assay. The MTS assay was carried out as described previously with modifications. At the end of either 24, 48 or 72 h of treatment with test samples (in the concentration range of 1-100 μM for purified gallotannins and 6.25-200 μg/mL for Maplifa extract), 20 μL of the MTS reagent, in combination with the electron coupling agent, phenazine menthosulfate, were added to the wells and cells were incubated at 37° C. in a humidified incubator for 3 h. Absorbance at 490 nm was monitored with a spectrophotometer (SpectraMax M2, Molecular Devices Corp., operated by SoftmaxPro v.4.6 software, CA, USA) to obtain the number of cells relative to control populations. […] Data was presented as mean values±S.D. and were obtained from three separate experiments. Two-tailed unpaired student's t-test was used for statistical analysis of the data using the Office Excel 2010 software. A p value <0.05 was considered significant.
Murine melanoma B16F10 was purchased from the American Type Culture Collection (Rockville, Md.). Cells were cultured in Dulbecco's Modified Eagle Medium (DMEM) medium (Wilkem Scientific, R.I.) that was supplemented with 10% v/v fetal bovine serum, 1% v/v nonessential amino acids and 1% v/v antibiotic solution at 37° C. in 5% CO2. Samples were dissolved at a concentration of 50 mg/mL in dimethylsulfoxide (DMSO) as stock solution and then diluted to the desired final concentrations with growth medium. […]
Melanoma B16F10 cells were treated with serial concentrations of Maplifa (6.25, 12.5, 25, 50, 100, and 200 μg/mL) for 48 and 72 h. In addition, various concentrations (0, 5, 10, 25, and 50 μM) of ginnalinginnalins A-C for 72 h and the cell viabilities were determined by comparing with the untreated control group. […]

[8] = system: B16F10 cells; assay: Melanin content in B16F10 cells; type: cell-based, murine; conditions: for melanin content compared to control group: 72 h
Protocol: The contents of biosynthesized melanin in melanoma B16F10 cells that treated with ginnalinginnalins A-C at serial concentrations were evaluated by comparing with the control group. The melanin content was determined using a modification of the method described by Liang and Ho. Briefly, B16F10 cells (5×10^4 cells/well) were first seeded in 24-well plates for 24 h and then medium was changed with new DMEM medium containing test samples of various concentrations. After 72 h incubation, the cells were harvested through trypsinization and washed with phosphate-buffered saline (PBS) twice. Then cells were lyzed with 1 N NaOH containing 10% DMSO and heated at 80° C. for 1 h. After samples cooled down to room temperature, the amount of melanin content was spectrophotometrically measured at 400 nm.

| IC50 [5] [µM] | SMILES | TRP-2 mRNA expression [1] | TYR mRNA expression [2] | MITF mRNA expression [3] | TRP-1 mRNA expression [4] | decrease of TRP-2 protein expression [6] [%] | B16F10 cell viability ([7]; 25 μM) [%] | B16F10 cell viability ([7]; 50 μM) [%] | toxicity to B16F10 cells ([7]; low concentrations (5 and 10 μM)) | melanin content compared to control group ([8]; 25 μM) [%] | effect on melanin content ([8]; 50 μM) | melanin content compared to control group ([8]; 50 μM) [%] | anti-melanogenic effects in B16F10 cells [8] | decrease of TYR mRNA expression ([2]; 48 hours) [%] | decrease of TYR mRNA expression ([2]; 72 hours) [%] |
| --- | --- | --- | --- | --- | --- | --- | --- | --- | --- | --- | --- | --- | --- | --- | --- |
| 182 | O=C(OC[C@H]1OC[C@H](OC(=O)c2cc(O)c(O)c(O)c2)[C@@H](O)[C@@H]1O)c1cc(O)c(O)c(O)c1 [Ginnalin A] | significantly reduced | significantly reduced | significantly reduced | significantly reduced | 87.9 | 87.0 | 89.5 | non-toxic | 79.1 | clearly reduced | 56.7 | – | – | – |
| 858 | O=C(O[C@H]1CO[C@H](CO)[C@@H](O)[C@@H]1O)c1cc(O)c(O)c(O)c1 [Ginnalin C] | only slightly decreased | only slightly decreased | significantly down-regulated | did not reduce | 69.5 | – | – | – | 89.7 | – | 68.8 | only minor anti-melanogenic effects | – | – |
| 63 ± 0.3 | OC[C@H]1O[C@@H](Oc2ccc(O)cc2)[C@H](O)[C@@H](O)[C@@H]1O [Arbutin, reference compound] | – | – | – | – | – | – | – | – | – | – | – | – | – | – |
| 1050 | O=C(OC[C@H]1OC[C@H](O)[C@@H](O)[C@@H]1O)c1cc(O)c(O)c(O)c1 [Ginnalin B] | significantly decreased | – | significantly decreased | significantly decreased | 92.0 | – | – | – | 90.0 | – | 90.0 | only minor anti-melanogenic effects | 10.0 | 7.5 |
